Test: Dissolution in deionized water or HCl 15% (Example 1)
Assay type: physicochemical
Conditions: 20 hours at 180° F., then 3 hours at room temperature
Method: Phthalic anhydride (obtained from a commercial supplier) and Sample A (8 g of each) were first mixed with 100 mL deionized water or HCl 15% and maintained for 20 hours at 180° F., and then cooled down to room temperature and kept for 3 hours.

## O=C1OC(=O)c2ccccc21 [Commercial Phthalic Anhydride, Phthalic anhydride]
8 g in 100 mL HCl 15%
  Dissolved (%): 4%
8 g in 100 mL deionized water
  Dissolved (%): 6%

— patent US9938811B2, “Method of enhancing fracture complexity using far-field divert systems” (Baker Hughes, LLC, priority 2013, dated 2018)
